Reference: BindingDB's records for doi:10.1074/jbc.M113.479303 (Wageningen University, 2013)

Columns and labels:
Experiment in all cases: Substrate Binding Assay
Settings in all cases: pH 8
[1] = target: T1, Probable salicylate monooxygenase (Rhodococcus jostii (strain RHA1), UniProt Q0SFK6)
T1 sequence (Q0SFK6 whole entry): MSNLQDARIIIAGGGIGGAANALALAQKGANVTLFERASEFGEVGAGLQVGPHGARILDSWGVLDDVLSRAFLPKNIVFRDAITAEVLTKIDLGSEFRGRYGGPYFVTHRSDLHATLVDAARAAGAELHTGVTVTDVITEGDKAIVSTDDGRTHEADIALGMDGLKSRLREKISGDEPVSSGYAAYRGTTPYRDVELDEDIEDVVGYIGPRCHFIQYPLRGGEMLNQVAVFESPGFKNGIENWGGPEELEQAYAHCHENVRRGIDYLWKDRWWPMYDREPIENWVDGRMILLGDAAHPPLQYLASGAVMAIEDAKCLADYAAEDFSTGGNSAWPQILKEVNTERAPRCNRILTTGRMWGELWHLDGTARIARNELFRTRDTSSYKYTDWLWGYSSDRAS
Experimental: (§1) The interaction of 3HB6H (25 uM) with substrate analogs was studied in 50 mM Tris-SO4 (pH 8.0). Dissociation constants (Kd) of enzyme-substrate complexes were determined from flavin absorption difference spectra essentially as described elsewhere [Montersino et al., Biochim. Biophys. Acta, 1824:433-442].

[2] = target: Probable salicylate monooxygenase [H213A] (Rhodococcus jostii (strain RHA1), UniProt Q0SFK6, H213A)
Experimental: as §1

[3] = target: Probable salicylate monooxygenase [Y105F] (Rhodococcus jostii (strain RHA1), UniProt Q0SFK6, Y105F)
Experimental: as §1

## O=C(O)c1cccc(O)c1
[1]
  Kd: 48 µM
[2]
  Kd: 61 µM
[3]
  Kd: 644 µM
